How the values were obtained:
[1] = tested on: acute inflammatory oedema of the paws; assay: Rat's paw oedema test (carrageenin), inhibition of the increase in paw volume; assay type: in vivo; details: po, 1 h, male rats, intragastral, one hour after carrageenin
Protocol: An acute inflammatory oedema of the paws was induced in male rats (100-120 g) by subplantar injection of 0.1 ml of 2% carrageenin (dissolved in aqueous 0.9% NaCl solution). The volume of the paws was measured with a volumetric paw measuring apparatus 1 hour and 4 hours after the carrageenin injection. The differences between the two measurements of the paws was calculated. The test substances were suspended in 1% tylose and administered intragastrally through a stomach tube one hour after the carrageenin injection. The control animals were only given the vehicle (1% tylose). The percentage inhibition of the increase in volume in the treated animals was obtained by a comparison with the untreated controls. The average inhibitory doses (ED50) were calculated by means of the regression curves.

leucocyte migration = assay: Leucocyte migration test (carrageenin-impregnated polyester sponge); assay type: in vivo; details: male rats, 50 mg/kg i.g., given immediately after sponge implantation and after 5 and 21 hours
Protocol: 2. Leucocyte migration test
A polyester sponge impregnated with 2% carrageenin solution was implanted subcutaneously in the neck region in male rats (140-150 g) (see G. A. Higgs et al, Eur. J. Pharmacol. 66, 81 (1980), A. W. Ford-Hutchinson et al, J. Pharmacol. Methods 1, 3 (1978)). The sponges were removed after 24 hours. The leucocytes which had migrated in were washed out in a PBS solution (pH 7.4, 0.5% trypsin, 10 units/ml of heparin) at 37° C. for 30 minutes.
The sponges were then carefully pressed out and centrifuged (10 minutes, 500 revs/min). The leucocytes in the washing liquid were then counted. The test substances, which were taken up in 1% tylose, and the vehicle (1% tylose) were administered intragastrally with a stomach tube immediately after implantation of the sponge and after 5 hours and 21 hours. The percentage inhibition of leucocyte migration after administration of the test substances was compared with that of the controls. The average inhibitory doses (ED50) were calculated by means of the regression graphs.

[2] = tested on: LTC 4-synthesis and -release (lipoxygenase); assay: Inhibition of LTC 4-synthesis and -release in vitro; assay type: cell-based
From the text: (§1) 3. Inhibition of PGE 2- and LTC 4-synthesis and -release

[3] = tested on: PGE 2-synthesis and -release (cyclooxygenase); assay: Inhibition of PGE 2-synthesis and -release in vitro; assay type: cell-based
From the text: as §1

| Structure (SMILES) | ED50 [1] [mg/kg] | Inhibition of leucocyte migration (control = 0%) (leucocyte migration) [%] | other results |
| --- | --- | --- | --- |
| CC=NNc1nc2ccc(C)cc2s1 [Example 7, N-(6-methylbenzothiazol-2-yl)acetaldehydehydrazone] | 25 |  |  |
| CN(NC=O)c1nc2ccccc2s1 [Example 4, N^2-(benzothiazol-2-yl)-N^2-methyl-formhydrazide] | 50 | 50 |  |
| CN(C)C=NNc1nc2ccccc2s1 [Example 1, N^1-(benzothiazol-2-yl)-N^3,N^3-dimethylformamidrazone] | 14 | 25 | LTC4 (% of controls) ([2]; at 10^-4): 51 % of controls; lipoxygenase inhibition (in words) ([2]; at 10^-4, conclusion from LTC4 test): lipoxygenase inhibition at 10^-4; LTC4 (% of controls) ([2]; at 10^-5): > 100 % of controls; LTC4 (% of controls) ([2]; at 10^-6): > 100 % of controls; PGE2 (% of controls) ([3]; at 10^-4): 29 % of controls; PGE2 (% of controls) ([3]; at 10^-5): 84 % of controls; PGE2 (% of controls) ([3]; at 10^-6): 99 % of controls; cyclooxygenase inhibition (in words) ([3]; conclusion from PGE2 test): cyclooxygenase inhibitor |
| CC=NNc1nc2cc(Cl)ccc2s1 [Example 8] | ~80 |  |  |
| CN(C)C=NN(C)c1nc2ccccc2s1 [Example 2, N^1-(benzothiazol-2-yl)-N^1,N^3,N^3-trimethylformamidrazone] | 15 |  |  |
| CC(=O)NNc1nc2ccc(C)cc2s1 [Example 6, N^2-(6-methylbenzothiazol-2-yl)-acetohydrazide] | 50 |  |  |
| CCOC(C)=NNc1nc2ccccc2s1 [Example 5, N^2-(benzothiazol-2-yl)-ethyl-acetohydrazonate] | 25 | 30 |  |

Source: patent publication US4732986A, “Benzothiazole derivatives, processes for their preparation and pharmaceutical compositions containing these compounds” (Ludwig Heumann & Co. GmbH, priority 1984, dated 1988)
